The assay deals with mTOR/GbL/Raptor (mTORC1) (Homo sapiens, UniProt P42345). The experiment in a line: mTOR/GbL/Raptor (mTORC1) ELISA assay. As to conditions: phosphorylation of 4E-BP1; 0.2 nM mTORC1, 10 μM ATP; read-out: IC50 in this assay (mTORC1 ELISA). Type of assay: biochemical. The protocol: The measurement of mTORC1 enzyme activity was performed in an ELISA assay format following the phosphorylation of 4E-BP1 protein. All experiments were performed in the 384-well format. Generally, 0.5 μL DMSO containing varying concentrations of the test Compound was mixed with 15 μL enzyme solution. Kinase reactions were initiated with the addition of 15 μL of substrates-containing solution. The assay conditions were as follows; 0.2 nM mTORC1, 10 μM ATP and 50 nM NHis-tagged 4E-BP1 in 20 mM Hepes, pH 7.2, 1 mM DTT, 50 mM NaCl, 10 mM MnCl2, 0.02 mg/mL BSA, 0.01% CHAPS, 50 mM β-glycerophosphate. Following an incubation of 120 minutes at ambient temperature, 20 μL of the reaction volume was transferred to a Ni-Chelate-coated 384-well plate. The binding step of the 4E-BP1 protein proceeded for 60 minutes, followed by washing 4 times each with 50 μL of Tris-buffered saline solution (TBS). Anti-phospho-4E-BP1 rabbit-IgG (20 μL, 1:5000) in 5% BSA-TBST (0.2% Tween-20 in TBS) was added and further incubated for 60 minutes. Incubation with a secondary HRP-tagged anti-IgG was similarly performed after washing off the primary antibody (4 washes of 50 μL). Following the final wash step with TBST, 20 μL of SuperSignal ELISA Femto (Pierce Biotechnology) was added and the luminescence measured using an EnVision plate reader.
(In an ELISA, binding on a coated surface is turned into a signal by an enzyme label.)
Consider `COc1cc2c(N3CCOc4ccc(-c5ccc6nc(C)[nH]c6c5)cc4C3)ncnc2c(OC)c1OC` [Example 57, 7-(2-methyl-1H-benzimidazol-6-yl)-4-[6,7,8-tris(methyloxy)quinazolin-4-tris(methyloxy)quinazolin-4-yl]-2,3,4,5-tetrahydro-1,4-benzoxazepine], for which the IC50 (as a rule, the concentration needed to halve the response being measured) is at least 2000 nM. The same measure for `CCc1ncnc(N2CCOc3ccc(-c4ccc5nc(C)[nH]c5c4)cc3C2)c1CC` [Example 58, 4-(5,6-diethylpyrimidin-4-yl)-7-(2-methyl-1H-benzimidazol-6-yl)-2,3,4,5-tetrahydro-1,4-benzoxazepine]: 50 to 250 nM; for `Cc1nc2ccc(-c3ccc4c(c3)CN(c3cc(C(C)C)ncn3)CCO4)cc2[nH]1` [Example 59, 7-(2-methyl-1H-benzimidazol-6-yl)-4-[6-(1-methylethyl)pyrimidin-4-yl]-2,3,4,5-tetrahydro-1,4-benzoxazepine]: 50 to 250 nM. `Cc1nc2ccc(-c3ccc4c(c3)CN(c3ncnc5c3CCN(Cc3ccccc3)C5)CCO4)cc2[nH]1` [Example 60, 7-(2-methyl-1H-benzimidazol-6-yl)-4-[7-(phenylmethyl)-5,6,7,8-tetrahydropyrido[3,4-d]pyrimidin-4-yl]-2,3,4,5-tetrahydro-1,4-benzoxazepine]: the IC50 lay in the range of 50 to 250 nM. In the case of `CCc1c(C(C)C)ncnc1N1CCOc2ccc(-c3ccc4nc(C)[nH]c4c3)cc2C1` [Example 61, 4-[5-ethyl-6-(1-methylethyl)pyrimidin-4-yl]-7-(2-methyl-1H-benzimidazol-6-yl)-2,3,4,5-tetrahydro-1,4-benzoxazepine], the concentration for half-maximal inhibition (IC50) was 50 to 250 nM. The same measure for `Cc1nc2ccc(-c3ccc4c(c3)CN(c3ncnc(C(C)C)c3C)CCO4)cc2[nH]1` [Example 62, 7-(2-methyl-1H-benzimidazol-6-yl)-4-[5-methyl-6-(1-methylethyl)pyrimidin-4-yl]-2,3,4,5-tetrahydro-1,4-benzoxazepine]: 250 to 1000 nM.

Turning to `Cc1nc2ccc(-c3ccc4c(c3)CN(c3ncnc5c3CCC(C)C5)CCO4)cc2[nH]1` (stereo not shown) [Example 63, 7-(2-methyl-1H-benzimidazol-6-yl)-4-(7-methyl-5,6,7,8-tetrahydroquinazolin-4-yl)-2,3,4,5-tetrahydro-1,4-benzoxazepine], the half-inhibitory concentration (IC50) was in the range of 50 to 250 nM.

With `CCc1c(C)ncnc1N1CCOc2ccc(-c3ccc4nc(C)[nH]c4c3)cc2C1` [Example 64, 4-(5-ethyl-6-methylpyrimidin-4-yl)-7-(2-methyl-1H-benzimidazol-6-yl)-2,3,4,5-tetrahydro-1,4-benzoxazepine], the IC50 fell in the range of 50 to 250 nM. The same measure for `Cc1nc2ccc(-c3ccc4c(c3)CN(c3ncnc5c3CC(C)(C)CC5)CCO4)cc2[nH]1` [Example 65, 4-(6,6-dimethyl-5,6,7,8-tetrahydroquinazolin-4-yl)-7-(2-methyl-1H-benzimidazol-6-yl)-2,3,4,5-tetrahydro-1,4-benzoxazepine]: at most 10 nM. On to `Cc1nc2ccc(-c3ccc4c(c3)CN(c3ncnc(C)c3C(C)C)CCO4)cc2[nH]1` [Example 66, 7-(2-methyl-1H-benzimidazol-6-yl)-4-[6-methyl-5-(1-methylethyl)pyrimidin-4-yl]-2,3,4,5-tetrahydro-1,4-benzoxazepine], for which the IC50 is at most 10 nM. As for `CCC1CCc2ncnc(N3CCOc4ccc(-c5ccc6nc(C)[nH]c6c5)cc4C3)c2C1` (stereo not shown) [Example 68, 4-(6-ethyl-5,6,7,8-tetrahydroquinazolin-4-yl)-7-(2-methyl-1H-benzimidazol-6-yl)-2,3,4,5-tetrahydro-1,4-benzoxazepine], the figure is 10 to 50 nM; as for `Cc1nc2ccc(-c3ccc4c(c3)CN(c3ncnc(C)c3CC3CC3)CCO4)cc2[nH]1` [Example 69, 4-[5-(cyclopropylmethyl)-6-methylpyrimidin-4-yl]-7-(2-methyl-1H-benzimidazol-6-yl)-2,3,4,5-tetrahydro-1,4-benzoxazepine], 50 to 250 nM.

Consider `CCc1ncnc(N2CCOc3ccc(-c4ccc5nc(C)[nH]c5c4)cc3C2)c1Cc1ccccc1` [Example 70, 4-[6-ethyl-5-(phenylmethyl)pyrimidin-4-yl]-7-(2-methyl-1H-benzimidazol-6-yl)-2,3,4,5-tetrahydro-1,4-benzoxazepine], for which the concentration for half-maximal inhibition (IC50) is at most 10 nM. Consider `Cc1nc2ccc(-c3ccc4c(c3)CN(c3ncnc(C)c3Cc3cccc(F)c3)CCO4)cc2[nH]1` [Example 72, 4-{5-[(3-fluorophenyl)methyl]-6-methylpyrimidin-4-yl}-7-(2-methyl-1H-benzimidazol-6-yl)-2,3,4,5-tetrahydro-1,4-benzoxazepine], for which the IC50 was at most 10 nM.

With `Cc1nc2ccc(-c3ccc4c(c3)CN(c3ncnc(C)c3Cc3cccc(Cl)c3)CCO4)cc2[nH]1` [Example 73, 4-{5-[(3-chlorophenyl)methyl]-6-methylpyrimidin-4-yl}-7-(2-methyl-1H-benzimidazol-6-yl)-2,3,4,5-tetrahydro-1,4-benzoxazepine], the IC50 is at most 10 nM. On to `Cc1nc2ccc(-c3ccc4c(c3)CN(c3ncnc(C)c3C(C)c3ccccc3)CCO4)cc2[nH]1` (stereo not shown) [Example 74], for which the half-maximal inhibitory concentration (IC50) was at most 10 nM. As for `Cc1nc2ccc(-c3ccc4c(c3)CN(c3ncnc5c3CC(C)C5)CCO4)cc2[nH]1` (stereo not shown) [Example 76, 7-(2-methyl-1H-benzimidazol-6-yl)-4-(6-methyl-6,7-dihydro-5H-cyclopenta[d]pyrimidin-4-yl)-2,3,4,5-tetrahydro-1,4-benzoxazepine], the figure is 50 to 250 nM; as for `Cc1nc2ccc(-c3ccc4c(c3)CN(c3ncnc(Nc5ccccc5)c3C)CCO4)cc2[nH]1` [Example 77, 5-methyl-6-[7-(2-methyl-1H-benzimidazol-6-yl)-2,3-dihydro-1,4-benzoxazepine-4(5H)-yl]-N-phenylpyrimidin-4-amine], 1000 to 2000 nM. The same measure for `Cc1ccc(Cc2c(C)ncnc2N2CCOc3ccc(-c4ccc5nc(C)[nH]c5c4)cc3C2)cc1` [Example 78, 7-(2-methyl-1H-benzimidazol-6-yl)-4-{6-methyl-5-[(4-methylphenyl)methyl]pyrimidin-4-yl}-2,3,4,5-tetrahydro-1,4-benzoxazepine]: at most 10 nM; for `Cc1nc2ccc(-c3ccc4c(c3)CN(c3ncnc(C)c3Cc3ccc(F)cc3)CCO4)cc2[nH]1` [Example 79, 4-{5-[(4-fluorophenyl)methyl]-6-methylpyrimidin-4-yl}-7-(2-methyl-1H-benzimidazol-6-yl)-2,3,4,5-tetrahydro-1,4-benzoxazepine]: at most 10 nM; for `Cc1nc2ccc(-c3ccc4c(c3)CN(c3ncnc(C)c3Cc3ccc(Cl)cc3)CCO4)cc2[nH]1` [Example 80, 4-{5-[(4-chlorophenyl)methyl]-6-methylpyrimidin-4-yl}-7-(2-methyl-1H-benzimidazol-6-yl)-2,3,4,5-tetrahydro-1,4-benzoxazepine]: at most 10 nM. As to `COc1cccc(Cc2c(C)ncnc2N2CCOc3ccc(-c4ccc5nc(C)[nH]c5c4)cc3C2)c1` [Example 81, 7-(2-methyl-1H-benzimidazol-6-yl)-4-(6-methyl-5-{[3-(methyloxy)phenyl]methyl}pyrimidin-4-yl)-2,3,4,5-tetrahydro-1,4-benzoxazepine], the half-inhibitory concentration (IC50) was in the range of 10 to 50 nM.

Consider `Cc1cccc(Cc2c(C)ncnc2N2CCOc3ccc(-c4ccc5nc(C)[nH]c5c4)cc3C2)c1` [Example 82, 7-(2-methyl-1H-benzimidazol-6-yl)-4-{6-methyl-5-[(3-methylphenyl)methyl]pyrimidin-4-yl}-2,3,4,5-tetrahydro-1,4-benzoxazepine], for which the half-inhibitory concentration (IC50) was in the range of 10 to 50 nM.

Consider `Cc1nc2ccc(-c3ccc4c(c3)CN(c3ncnc(C)c3Cc3cc(F)cc(Cl)c3)CCO4)cc2[nH]1` [Example 83, 4-{5-[(3-chloro-5-fluorophenyl)methyl]-6-methylpyrimidin-4-yl}-7-(2-methyl-1H-benzimidazol-6-yl)-2,3,4,5-tetrahydro-1,4-benzoxazepine], for which the 50% inhibitory concentration (IC50) is at most 10 nM. Turning to `COc1ccccc1Cc1c(C)ncnc1N1CCOc2ccc(-c3ccc4nc(C)[nH]c4c3)cc2C1` [Example 84, 7-(2-methyl-1H-benzimidazol-6-yl)-4-(6-methyl-5-{[2-(methyloxy)phenyl]methyl}pyrimidin-4-yl)-2,3,4,5-tetrahydro-1,4-benzoxazepine], the IC50 was in the range of 10 to 50 nM. With `Cc1nc2ccc(-c3ccc4c(c3)CN(c3ncnc(C)c3Cc3ccccc3C)CCO4)cc2[nH]1` [Example 86, 7-(2-methyl-1H-benzimidazol-6-yl)-4-{6-methyl-5-[(2-methylphenyl)methyl]pyrimidin-4-yl}-2,3,4,5-tetrahydro-1,4-benzoxazepine], the IC50 lay in the range of 10 to 50 nM.

`Cc1nc2ccc(-c3ccc4c(c3)CN(c3ncnc(C)c3Cc3ccc(F)c(F)c3)CCO4)cc2[nH]1` [Example 89, 4-{5-[(3,4-difluorophenyl)methyl]-6-methylpyrimidin-4-yl}-7-(2-methyl-1H-benzimidazol-6-yl)-2,3,4,5-tetrahydro-1,4-benzoxazepine]: the IC50 was at most 10 nM. The same measure for `Cc1nc2ccc(-c3ccc4c(c3)CN(c3ncnc(C)c3Cc3ccc(C(F)(F)F)cc3)CCO4)cc2[nH]1` [Example 90, 7-(2-methyl-1H-benzimidazol-6-yl)-4-(6-methyl-5-{[4-(trifluoromethyl)phenyl]methyl}pyrimidin-4-yl)-2,3,4,5-tetrahydro-1,4-benzoxazepine]: 10 to 50 nM.

For the origin of these results see US8648066B2 (Exelixis, Inc., priority 2009, dated 2014).
